Experiments:
[1] = Stress test of solid plinabulin, 30 days light storage vs dark control; type: physicochemical
Excerpt: This comparative example reports a plinabulin stress test of solid plinabulin showing relative stability to light storage for 30 days. […]

[2] = Light sensitivity study of solid plinabulin; type: physicochemical
Excerpt: Table 8 illustrates the stability of solid plinabulin in a light sensitivity study.

[3] = solid, minimum of 1.2 million LUX hours and 200 watts/square meter

**Q.** Which results are given for `CC(C)(C)c1[nH]cnc1/C=c1\[nH]c(=O)/c(=C/c2ccccc2)[nH]c1=O` [Plinabulin, (3Z,6Z)-3-Benzylidene-6-{[5-(2-methyl-2-propanyl)-1H-imidazol-4-yl]methylene}-2,5-piperazinedione]?
**A.** Alcohol Impurity by HPLC ([1]; Control Sample (dark), 0 days): 0.02%; Amide Impurity by HPLC ([1]; Control Sample (dark), 0 days): 0.02%; Appearance ([1]; Control Sample (dark), 0 days): Yellow; Assay by HPLC ([1]; Control Sample (dark), 0 days): 98.9% w/w; Cyano Impurity by HPLC ([1]; Control Sample (dark), 0 days): 0.1%; De-Carboxylate Impurity by HPLC ([1]; Control Sample (dark), 0 days): 0.1%; Ether Impurity by HPLC ([1]; Control Sample (dark), 0 days): 0.02%; Impurity-489-1 by HPLC ([1]; Control Sample (dark), 0 days): 0.1%; Impurity-489-2 by HPLC ([1]; Control Sample (dark), 0 days): 0.1%; Other Unspecified Impurity by HPLC ([1]; Control Sample (dark), 0 days): 0.02%; Total Impurities by HPLC ([1]; Control Sample (dark), 0 days): 0.3%; Water ([1]; Control Sample (dark), 0 days): 0.1%; Alcohol Impurity by HPLC ([1]; Control Sample (dark), 5 days): 0.02%; Amide Impurity by HPLC ([1]; Control Sample (dark), 5 days): 0.02%; Appearance ([1]; Control Sample (dark), 5 days): Yellow; Assay by HPLC ([1]; Control Sample (dark), 5 days): 98.42% w/w; Cyano Impurity by HPLC ([1]; Control Sample (dark), 5 days): 0.11%; De-Carboxylate Impurity by HPLC ([1]; Control Sample (dark), 5 days): 0.09%; Ether Impurity by HPLC ([1]; Control Sample (dark), 5 days): 0.02%; Impurity-489-1 by HPLC ([1]; Control Sample (dark), 5 days): 0.16%; Impurity-489-2 by HPLC ([1]; Control Sample (dark), 5 days): 0.02%; Other Unspecified Impurity by HPLC ([1]; Control Sample (dark), 5 days): 0.02%; Total Impurities by HPLC ([1]; Control Sample (dark), 5 days): 0.36%; Water ([1]; Control Sample (dark), 5 days): 0.05%; Alcohol Impurity by HPLC ([1]; Control Sample (dark), 10 days): 0.02%; Amide Impurity by HPLC ([1]; Control Sample (dark), 10 days): 0.02%; Appearance ([1]; Control Sample (dark), 10 days): Yellow; Assay by HPLC ([1]; Control Sample (dark), 10 days): 99.33% w/w; Cyano Impurity by HPLC ([1]; Control Sample (dark), 10 days): 0.12%; De-Carboxylate Impurity by HPLC ([1]; Control Sample (dark), 10 days): 0.09%; Ether Impurity by HPLC ([1]; Control Sample (dark), 10 days): 0.02%; Impurity-489-1 by HPLC ([1]; Control Sample (dark), 10 days): 0.12%; Impurity-489-2 by HPLC ([1]; Control Sample (dark), 10 days): 0.02%; Other Unspecified Impurity by HPLC ([1]; Control Sample (dark), 10 days): 0.02%; Total Impurities by HPLC ([1]; Control Sample (dark), 10 days): 0.32%; Water ([1]; Control Sample (dark), 10 days): 0.05%; Alcohol Impurity by HPLC ([1]; Control Sample (dark), 30 days): 0.02%; Amide Impurity by HPLC ([1]; Control Sample (dark), 30 days): 0.02%; Appearance ([1]; Control Sample (dark), 30 days): Yellow; Assay by HPLC ([1]; Control Sample (dark), 30 days): 99.29% w/w; Cyano Impurity by HPLC ([1]; Control Sample (dark), 30 days): 0.11%; De-Carboxylate Impurity by HPLC ([1]; Control Sample (dark), 30 days): 0.09%; Ether Impurity by HPLC ([1]; Control Sample (dark), 30 days): 0.02%; Impurity-489-1 by HPLC ([1]; Control Sample (dark), 30 days): 0.15%; Impurity-489-2 by HPLC ([1]; Control Sample (dark), 30 days): 0.02%; Other Unspecified Impurity by HPLC ([1]; Control Sample (dark), 30 days): 0.05%; Total Impurities by HPLC ([1]; Control Sample (dark), 30 days): 0.36%; Water ([1]; Control Sample (dark), 30 days): 0.05%; Alcohol Impurity by HPLC ([1]; Photo Sample, 0 days): 0.02%; Amide Impurity by HPLC ([1]; Photo Sample, 0 days): 0.02%; Assay by HPLC ([1]; Photo Sample, 0 days): 98.9% w/w; Cyano Impurity by HPLC ([1]; Photo Sample, 0 days): 0.1%; De-Carboxylate Impurity by HPLC ([1]; Photo Sample, 0 days): 0.1%; Ether Impurity by HPLC ([1]; Photo Sample, 0 days): 0.02%; Impurity-489-1 by HPLC ([1]; Photo Sample, 0 days): 0.1%; Impurity-489-2 by HPLC ([1]; Photo Sample, 0 days): 0.1%; Other Unspecified Impurity by HPLC ([1]; Photo Sample, 0 days): 0.02%; Total Impurities by HPLC ([1]; Photo Sample, 0 days): 0.3%; Water ([1]; Photo Sample, 0 days): 0.1%; Alcohol Impurity by HPLC ([1]; Photo Sample, 5 days): 0.02%; Amide Impurity by HPLC ([1]; Photo Sample, 5 days): 0.02%; Assay by HPLC ([1]; Photo Sample, 5 days): 99.37% w/w; Cyano Impurity by HPLC ([1]; Photo Sample, 5 days): 0.11%; De-Carboxylate Impurity by HPLC ([1]; Photo Sample, 5 days): 0.09%; Ether Impurity by HPLC ([1]; Photo Sample, 5 days): 0.02%; Impurity-489-1 by HPLC ([1]; Photo Sample, 5 days): 0.10%; Impurity-489-2 by HPLC ([1]; Photo Sample, 5 days): 0.05%; Other Unspecified Impurity by HPLC ([1]; Photo Sample, 5 days): 0.02%; Total Impurities by HPLC ([1]; Photo Sample, 5 days): 0.3%; Water ([1]; Photo Sample, 5 days): 0.05%; Alcohol Impurity by HPLC ([1]; Photo Sample, 10 days): 0.02%; Amide Impurity by HPLC ([1]; Photo Sample, 10 days): 0.02%; Assay by HPLC ([1]; Photo Sample, 10 days): 99.36% w/w; Cyano Impurity by HPLC ([1]; Photo Sample, 10 days): 0.12%; De-Carboxylate Impurity by HPLC ([1]; Photo Sample, 10 days): 0.08%; Ether Impurity by HPLC ([1]; Photo Sample, 10 days): 0.02%; Impurity-489-1 by HPLC ([1]; Photo Sample, 10 days): 0.07%; Impurity-489-2 by HPLC ([1]; Photo Sample, 10 days): 0.05%; Other Unspecified Impurity by HPLC ([1]; Photo Sample, 10 days): 0.02%; Total Impurities by HPLC ([1]; Photo Sample, 10 days): 0.27%; Water ([1]; Photo Sample, 10 days): 0.05%; Alcohol Impurity by HPLC ([1]; Photo Sample, 30 days): 0.02%; Amide Impurity by HPLC ([1]; Photo Sample, 30 days): 0.02%; Assay by HPLC ([1]; Photo Sample, 30 days): 99.17% w/w; Cyano Impurity by HPLC ([1]; Photo Sample, 30 days): 0.11%; De-Carboxylate Impurity by HPLC ([1]; Photo Sample, 30 days): 0.09%; Ether Impurity by HPLC ([1]; Photo Sample, 30 days): 0.02%; Impurity-489-1 by HPLC ([1]; Photo Sample, 30 days): 0.06%; Impurity-489-2 by HPLC ([1]; Photo Sample, 30 days): 0.05%; Other Unspecified Impurity by HPLC ([1]; Photo Sample, 30 days): 0.1%; Total Impurities by HPLC ([1]; Photo Sample, 30 days): 0.6%; Water ([1]; Photo Sample, 30 days): 0.05%; Light sensitivity ([2]; solid plinabulin): not light sensitive; Appearance ([2]; solid, Dark Control): Yellow Solid.; HPLC (% AUC) at 214 nm ([2]; solid, Dark Control): 99.3% AUC; HPLC (% AUC) at 250 nm ([2]; solid, Dark Control): 99.5% AUC; HPLC (% AUC) at 370 nm ([2]; solid, Dark Control): 99.4% AUC; Impurity at 214 nm, rrt 0.86 ([2]; solid, Dark Control): 0.21% @rrt 0.86; Impurity at 214 nm, rrt 0.97 ([2]; solid, Dark Control): 0.33% @rrt 0.97; Impurity at 214 nm, rrt 1.17 ([2]; solid, Dark Control): 0.06% @rrt 1.17; Impurity at 214 nm, rrt 1.27 ([2]; solid, Dark Control): 0.04% @rrt 1.27; KF ([2]; solid, Dark Control): 5.1%; Single impurity >1% AUC at 214 nm ([2]; solid, Dark Control): No single impurity; Appearance ([2]; solid, Time 0): Yellow Solid.; HPLC (% AUC) at 214 nm ([2]; solid, Time 0): 99.2% AUC; HPLC (% AUC) at 250 nm ([2]; solid, Time 0): 99.4% AUC; HPLC (% AUC) at 370 nm ([2]; solid, Time 0): 99.4% AUC; Impurity at 214 nm, rrt 0.86 ([2]; solid, Time 0): 0.21% @rrt 0.86; Impurity at 214 nm, rrt 0.96 ([2]; solid, Time 0): 0.36% @rrt 0.96; Impurity at 214 nm, rrt 1.14 ([2]; solid, Time 0): 0.06% @rrt 1.14; Impurity at 214 nm, rrt 1.18 ([2]; solid, Time 0): 0.05% @rrt 1.18; Impurity at 214 nm, rrt 1.19 ([2]; solid, Time 0): 0.02% @rrt 1.19; Impurity at 214 nm, rrt 1.28 ([2]; solid, Time 0): 0.02% @rrt 1.28; KF ([2]; solid, Time 0): 5.1%; Single impurity >1% AUC at 214 nm ([2]; solid, Time 0): No single impurity; Appearance [2, 3]: Yellow Solid.; HPLC (% AUC) at 214 nm [2, 3]: 99.4% AUC; HPLC (% AUC) at 250 nm [2, 3]: 99.4% AUC; HPLC (% AUC) at 370 nm [2, 3]: 99.5% AUC; Impurity at 214 nm, rrt 0.40 [2, 3]: 0.02% @rrt 0.40; Impurity at 214 nm, rrt 0.49 [2, 3]: 0.05% @rrt 0.49; Impurity at 214 nm, rrt 0.68 [2, 3]: 0.02% @rrt 0.68; Impurity at 214 nm, rrt 0.86 [2, 3]: 0.08% @rrt 0.86; Impurity at 214 nm, rrt 0.97 [2, 3]: 0.29% @rrt 0.97; Impurity at 214 nm, rrt 1.17 [2, 3]: 0.05% @rrt 1.17; Impurity at 214 nm, rrt 1.27 [2, 3]: 0.02% @rrt 1.27; KF [2, 3]: 5.0%; Single impurity >1% AUC at 214 nm [2, 3]: No single impurity
